From article PMC12649549, “Sequence Permutation Generated Lysine and Tryptophan-Rich Antimicrobial Peptides with Enhanced Therapeutic Index” (Antibiotics, 2025)
Read-outs that look alike come from different tables or passages of the source.

Experiments:
[1] = system: A. baumannii 14B00100 (Acinetobacter sp., BCRC number 14B0100)
Outline: (§1)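 Broth microdilution per CLSI in Müller-Hinton broth and modified LYM broth (pH 7.4; variants with 50–300 mM NaCl, 0.5–2.5 mM MgCl2, or pH 6.5–4.5). Inoculum 5 × 10^5 CFU/mL; peptides tested at 0.78–50 µg/mL final. MIC read; three independent repeats.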

[2] = system: A. baumannii 14B0091 (Acinetobacter sp., BCRC number 14B0091)
Outline: as §1

[3] = system: A. baumannii 14B0097 (Acinetobacter sp., BCRC number 14B0097)
Outline: as §1

[4] = system: Pseudomonas aeruginosa Migula (ATCC 27853)
Outline: as §1

[5] = system: S. aureus ATCC 25923
Outline: as §1

[6] = system: S. aureus ATCC 33591
Outline: as §1

[7] = system: S. aureus ATCC 6538
Outline: as §1

[8] = LYM broth, 0 mM NaCl, 16 h, 37 °C
[9] = LYM broth, 50 mM NaCl, 16 h, 37 °C
[10] = LYM broth, 100 mM NaCl, 16 h, 37 °C
[11] = LYM broth, 200 mM (NaCl), 16 h, 37 °C
[12] = LYM broth, 300 mM (NaCl), 16 h, 37 °C
[13] = MH broth, 5 × 10^5 CFU/mL, 16 h, 37 °C, repeated three times

Substance: Ac-KWLAKKKKWRKWL-NH2 [Peptide W5K07]
- MIC [1, 8]: 3.13 µg/mL
- MIC ([1]; LYM broth, 0.5 mM MgCl2): 3.13 µg/mL
- MIC ([1]; LYM broth, 1.5 mM MgCl2): 3.13 µg/mL
- MIC ([1]; LYM broth, 2.5 mM MgCl2): 3.13 µg/mL
- MIC [1, 9]: 6.25 µg/mL
- MIC [1, 10]: 6.25 µg/mL
- MIC [1, 11]: 25 µg/mL
- MIC [1, 12]: 50 µg/mL
- MIC ([1]; LYM broth, pH 4.5): 3.13 µg/mL
- MIC ([1]; LYM broth, pH 5.5): 3.13 µg/mL
- MIC ([1]; LYM broth, pH 6.5): 3.13 µg/mL
- MIC [1, 13]: 12.5 µg/mL
- MIC [2, 8]: 3.13 µg/mL
- MIC ([2]; LYM broth, 0.5 mM MgCl2): 3.13 µg/mL
- MIC ([2]; LYM broth, 1.5 mM MgCl2): 3.13 µg/mL
- MIC ([2]; LYM broth, 2.5 mM MgCl2): 3.13 µg/mL
- MIC [2, 9]: 6.25 µg/mL
- MIC [2, 10]: 6.25 µg/mL
- MIC [2, 11]: 50 µg/mL
- MIC [2, 12]: >50 µg/mL
- MIC ([2]; LYM broth, pH 4.5): 6.25 µg/mL
- MIC ([2]; LYM broth, pH 5.5): 3.13 µg/mL
- MIC ([2]; LYM broth, pH 6.5): 3.13 µg/mL
- MIC [2, 13]: 12.5 µg/mL
- MIC [3, 8]: 3.13 µg/mL
- MIC ([3]; LYM broth, 0.5 mM MgCl2): 3.13 µg/mL
- MIC ([3]; LYM broth, 1.5 mM MgCl2): 3.13 µg/mL
- MIC ([3]; LYM broth, 2.5 mM MgCl2): 3.13 µg/mL
- MIC [3, 9]: 6.25 µg/mL
- MIC [3, 10]: 12.5 µg/mL
- MIC [3, 11]: 50 µg/mL
- MIC [3, 12]: >50 µg/mL
- MIC ([3]; LYM broth, pH 4.5): 3.13 µg/mL
- MIC ([3]; LYM broth, pH 5.5): 3.13 µg/mL
- MIC ([3]; LYM broth, pH 6.5): 3.13 µg/mL
- MIC [3, 13]: 12.5 µg/mL
- MIC [4, 8]: 6.25 µg/mL
- MIC ([4]; LYM broth, 0.5 mM MgCl2): 12.5 µg/mL
- MIC ([4]; LYM broth, 1.5 mM MgCl2): 12.5 µg/mL
- MIC ([4]; LYM broth, 2.5 mM MgCl2): 25 µg/mL
- MIC [4, 9]: 12.5 µg/mL
- MIC [4, 10]: 25 µg/mL
- MIC [4, 11]: >50 µg/mL
- MIC [4, 12]: >50 µg/mL
- MIC ([4]; LYM broth, pH 4.5): 12.5 µg/mL
- MIC ([4]; LYM broth, pH 5.5): 6.25 µg/mL
- MIC ([4]; LYM broth, pH 6.5): 3.13 µg/mL
- MIC [4, 13]: 50 µg/mL
- MIC [5, 8]: 6.25 µg/mL
- MIC ([5]; LYM broth, 0.5 mM MgCl2): 6.25 µg/mL
- MIC ([5]; LYM broth, 1.5 mM MgCl2): 12.5 µg/mL
- MIC ([5]; LYM broth, 2.5 mM MgCl2): 12.5 µg/mL
- MIC [5, 9]: 12.5 µg/mL
- MIC [5, 10]: 25 µg/mL
- MIC [5, 11]: 50 µg/mL
- MIC [5, 12]: >50 µg/mL
- MIC ([5]; LYM broth, pH 4.5): 12.5 µg/mL
- MIC ([5]; LYM broth, pH 5.5): 6.25 µg/mL
- MIC ([5]; LYM broth, pH 6.5): 3.13 µg/mL
- MIC [5, 13]: 50 µg/mL
- MIC [6, 8]: 25 µg/mL
- MIC ([6]; LYM broth, 0.5 mM MgCl2): 25 µg/mL
- MIC ([6]; LYM broth, 1.5 mM MgCl2): 25 µg/mL
- MIC ([6]; LYM broth, 2.5 mM MgCl2): 25 µg/mL
- MIC [6, 9]: 25 µg/mL
- MIC [6, 10]: 50 µg/mL
- MIC [6, 11]: 50 µg/mL
- MIC [6, 12]: >50 µg/mL
- MIC ([6]; LYM broth, pH 4.5): 25 µg/mL
- MIC ([6]; LYM broth, pH 5.5): 25 µg/mL
- MIC ([6]; LYM broth, pH 6.5): 12.5 µg/mL
- MIC [6, 13]: >50 µg/mL
- MIC [7, 8]: 6.25 µg/mL
- MIC ([7]; LYM broth, 0.5 mM MgCl2): 3.13 µg/mL
- MIC ([7]; LYM broth, 1.5 mM MgCl2): 6.25 µg/mL
- MIC ([7]; LYM broth, 2.5 mM MgCl2): 6.25 µg/mL
- MIC [7, 9]: 12.5 µg/mL
- MIC [7, 10]: 12.5 µg/mL
- MIC [7, 11]: 50 µg/mL
- MIC [7, 12]: >50 µg/mL
- MIC ([7]; LYM broth, pH 4.5): 6.25 µg/mL
- MIC ([7]; LYM broth, pH 5.5): 6.25 µg/mL
- MIC ([7]; LYM broth, pH 6.5): 3.13 µg/mL
- MIC [7, 13]: >50 µg/mL

Substance: Ac-KWLKWLAKKKKWR-NH2 [Peptide W5K04]
- MIC [1, 8]: 1.56 µg/mL
- MIC ([1]; LYM broth, 0.5 mM MgCl2): 1.56 µg/mL
- MIC ([1]; LYM broth, 1.5 mM MgCl2): 3.13 µg/mL
- MIC ([1]; LYM broth, 2.5 mM MgCl2): 3.13 µg/mL
- MIC [1, 9]: 1.56 µg/mL
- MIC [1, 10]: 3.13 µg/mL
- MIC [1, 11]: 12.5 µg/mL
- MIC [1, 12]: 25 µg/mL
- MIC ([1]; LYM broth, pH 4.5): 1.56 µg/mL
- MIC ([1]; LYM broth, pH 5.5): 1.56 µg/mL
- MIC ([1]; LYM broth, pH 6.5): 1.56 µg/mL
- MIC [1, 13]: 12.5 µg/mL
- MIC [2, 8]: 1.56 µg/mL
- MIC ([2]; LYM broth, 0.5 mM MgCl2): 1.56 µg/mL
- MIC ([2]; LYM broth, 1.5 mM MgCl2): 3.13 µg/mL
- MIC ([2]; LYM broth, 2.5 mM MgCl2): 3.13 µg/mL
- MIC [2, 9]: 3.13 µg/mL
- MIC [2, 10]: 3.13 µg/mL
- MIC [2, 11]: 12.5 µg/mL
- MIC [2, 12]: 50 µg/mL
- MIC ([2]; LYM broth, pH 4.5): 3.13 µg/mL
- MIC ([2]; LYM broth, pH 5.5): 3.13 µg/mL
- MIC ([2]; LYM broth, pH 6.5): 1.56 µg/mL
- MIC [2, 13]: 12.5 µg/mL
- MIC [3, 8]: 1.56 µg/mL
- MIC ([3]; LYM broth, 0.5 mM MgCl2): 1.56 µg/mL
- MIC ([3]; LYM broth, 1.5 mM MgCl2): 3.13 µg/mL
- MIC ([3]; LYM broth, 2.5 mM MgCl2): 3.13 µg/mL
- MIC [3, 9]: 3.13 µg/mL
- MIC [3, 10]: 3.13 µg/mL
- MIC [3, 11]: 12.5 µg/mL
- MIC [3, 12]: 50 µg/mL
- MIC ([3]; LYM broth, pH 4.5): 3.13 µg/mL
- MIC ([3]; LYM broth, pH 5.5): 1.56 µg/mL
- MIC ([3]; LYM broth, pH 6.5): 1.56 µg/mL
- MIC [3, 13]: 12.5 µg/mL
- MIC [4, 8]: 12.5 µg/mL
- MIC ([4]; LYM broth, 0.5 mM MgCl2): 6.25 µg/mL
- MIC ([4]; LYM broth, 1.5 mM MgCl2): 12.5 µg/mL
- MIC ([4]; LYM broth, 2.5 mM MgCl2): 12.5 µg/mL
- MIC [4, 9]: 12.5 µg/mL
- MIC [4, 10]: 25 µg/mL
- MIC [4, 11]: >50 µg/mL
- MIC [4, 12]: >50 µg/mL
- MIC ([4]; LYM broth, pH 4.5): 6.25 µg/mL
- MIC ([4]; LYM broth, pH 5.5): 6.25 µg/mL
- MIC ([4]; LYM broth, pH 6.5): 3.13 µg/mL
- MIC [4, 13]: 50 µg/mL
- MIC [5, 8]: 6.25 µg/mL
- MIC ([5]; LYM broth, 0.5 mM MgCl2): 6.25 µg/mL
- MIC ([5]; LYM broth, 1.5 mM MgCl2): 6.25 µg/mL
- MIC ([5]; LYM broth, 2.5 mM MgCl2): 6.25 µg/mL
- MIC [5, 9]: 12.5 µg/mL
- MIC [5, 10]: 25 µg/mL
- MIC [5, 11]: >50 µg/mL
- MIC [5, 12]: >50 µg/mL
- MIC ([5]; LYM broth, pH 4.5): 12.5 µg/mL
- MIC ([5]; LYM broth, pH 5.5): 6.25 µg/mL
- MIC ([5]; LYM broth, pH 6.5): 3.13 µg/mL
- MIC [5, 13]: 50 µg/mL
- MIC [6, 8]: 25 µg/mL
- MIC ([6]; LYM broth, 0.5 mM MgCl2): 25 µg/mL
- MIC ([6]; LYM broth, 1.5 mM MgCl2): 25 µg/mL
- MIC ([6]; LYM broth, 2.5 mM MgCl2): 50 µg/mL
- MIC [6, 9]: 50 µg/mL
- MIC [6, 10]: 50 µg/mL
- MIC [6, 11]: >50 µg/mL
- MIC [6, 12]: >50 µg/mL
- MIC ([6]; LYM broth, pH 4.5): 25 µg/mL
- MIC ([6]; LYM broth, pH 5.5): 12.5 µg/mL
- MIC ([6]; LYM broth, pH 6.5): 12.5 µg/mL
- MIC [6, 13]: >50 µg/mL
- MIC [7, 8]: 3.13 µg/mL
- MIC ([7]; LYM broth, 0.5 mM MgCl2): 3.13 µg/mL
- MIC ([7]; LYM broth, 1.5 mM MgCl2): 6.25 µg/mL
- MIC ([7]; LYM broth, 2.5 mM MgCl2): 6.25 µg/mL
- MIC [7, 9]: 6.25 µg/mL
- MIC [7, 10]: 25 µg/mL
- MIC [7, 11]: 50 µg/mL
- MIC [7, 12]: >50 µg/mL
- MIC ([7]; LYM broth, pH 4.5): 6.25 µg/mL
- MIC ([7]; LYM broth, pH 5.5): 6.25 µg/mL
- MIC ([7]; LYM broth, pH 6.5): 3.13 µg/mL
- MIC [7, 13]: 25 µg/mL
